Measurements published in patent US9289446B2, “Myocardial perfusion imaging methods and compositions” (GILEAD SCIENCES, INC., priority 2002, dated 2016).

Key:
[1] = test system: myocardial ischemia detection (SPECT MPI); test: Example 6: stress/rest SPECT myocardial perfusion imaging, CVT-3146 versus adenosine; type: in vivo, human; conditions: 400 mcg vs 500 mcg
Excerpt: Pharmacologic stress SPECT myocardial perfusion imaging (MPI) with adenosine (A) is a well-accepted technique, with excellent diagnostic and prognostic value and proven safety. However, side effects are common and AV nodal block and severe flushing are poorly tolerated. Agents such as CVT-3146 selectively act upon the A2A adenosine receptor and avoid stimulation of other receptor subtypes which may prevent such adverse reactions.
To determine the ability of CVT-3146 to produce coronary hyperemia and accurately detect CAD, 35 subjects (26 men, 9 women; 67±10 years) underwent both A and CVT-3146 stress/rest MPI, with 10.0±9.1 days between studies. […] CVT-3146 [400 mcg (n=18), 500 mcg (n=17)] was administered as an IV bolus immediately followed by a saline flush, and then a Tc-99m radiopharmaceutical [sestamibi (n=34), tetrofosmin (n=1)]. SPECT images were uniformly processed, intermixed with control studies (normal and fixed-only defects), and interpreted by three observers in a blinded fashion using a 17-segment model. Quantitative analysis was also performed using 4D MSPECT. In addition to three separate readings, a consensus interpretation was performed and then a direct, same-screen comparison of A and CVT-3146 images undertaken to determine relative differences, using 5 regions per study.

[2] = test system: coronary blood flow velocity; test: Example 2: dose-ranging study of CVT-3146 IV bolus as coronary vasodilator (coronary flow velocity, heart rate, blood pressure, adverse events); type: in vivo, human
Excerpt: This example is a study performed to determine the range of dosages over which the selective A2A receptor agonist, CVT-3146 can be administered and be effective as a coronary vasodilator.
The study included patients undergoing a clinically indicated coronary catheterization with no more than a 70% stenosis in any coronary artery and no more than a 50% stenosis of the study vessel had CBFv determined by Doppler flow wire. Study subject were selected after measuring baseline and peak CBFv after an intracoronary (IC) injection of 18 μg of Ado. 36 subjects were identified as meeting the study criteria of having a peak to baseline CBFv ration of ≧2.5 in response to Adenosine,
CVT-3146 was administered to the study subjects by IV bolus in less that 10 seconds in amounts ranging from 10 μg to 500 μg.
The effectiveness of both compounds was measured by monitoring coronary flow velocity. Other coronary parameters that were monitored included heart rate and blood pressure. These parameters were measured in order to evaluate the time to peak dose response, the magnitude of the dose response and the duration of the dose response. Adverse events were also monitored. Coronary blood flow velocity was measured at the left anterior descending coronary artery (LAD) or left circumflex coronary artery (LCx). The velocity measurements were taken by following standard heart catheterization techniques and inserting a 0.014 inch Doppler-tipped Flowire into the LAD or LCx vessel and thereafter monitoring blood flow velocity. In addition, hemodynamic and electrocardiographic measurements were recorded continuously.
Overall, 36 human subjects (n=36) were evaluated. Of the 36, 18 were female and 18 were male. Their mean age was 53.4 and they ranged from 24-72 years in age. Of the 36 subjects evaluated, the LAD vessel of 31 subjects was monitored, and the LCx vessel of 5 subjects was monitored. The following doses (μg) of CVT-3146 were given to the subjects in a single iv bolus: 10 (n=4); 30 (n=6); 100 (n=4); 300 (n=7); 400 (n=9); 500 (n=6).

[3] = test system: heart rate (HR) and blood pressure (BP); test: Example 5: heart rate, blood pressure and plasma catecholamines after i.v. bolus in awake rats (sympathoexcitation); type: in vivo
Method: The present study was carried out to determine whether CVT-3146, a selective A2A adenosine receptor agonist, causes sympathoexcitation.
CVT (0.31 μg/kg-50 μg/kg) was given as a rapid i.v. bolus to awake rats and heart rate (HR) and blood pressure (BP) were monitored. CVT-3146 caused an increase in BP and systolic pressure (SP) at lower doses while at higher doses there was a decrease in BP and SP. […] The increase in HR was evident at the lowest dose of CVT at which there was no appreciable decrease in BP. ZM241385 (30 μg/kg, N=5), an A2A receptor antagonist, attenuated the decrease in BP (CVT-3146: 14±3%, ZM: 1±1%) and the increase in HR (CVT: 27±3%, ZM: 18±3%) caused by CVT-3146. Pretreatment with metoprolol (MET, 1 mg/kg, n=5), a beta-blocker, attenuated the increase in HR (CVT: 27±3%, MET: 15±2%), but had no effect on hypotension caused by CVT-3146. In the presence of hexamethonium (HEX, 10 mg/kg, n=5), a ganglionic blocker, the tachycardia was prevented (CVT: 27±3%, HEX: −1±2%), but BP was further reduced (CVT: −11±2%, HEX: −49±5%).

[4] = Example 3: pharmacokinetic profile of CVT-3146 in healthy volunteers after single IV bolus (three-compartment model); type: in vivo; conditions: male, human, plasma, Total (doses 1-30 μg/kg), N=22, mean, read-out: VSS (volume of distribution at steady state)
Method: This Example is a study performed to evaluate (1) the maximum tolerated dose of CVT-3146 and (2) the pharmacokinetic profile of CVT-3146 in healthy volunteers, after a single IV bolus dose.
The study was performed using thirty-six healthy, non-smoking male subjects between the ages of 18 and 59 and within 15% of ideal body weight.
CVT-3146 was administered as an IV bolus (20, seconds) in ascending doses of […], 10, 20, and 30 μg/kg.
Pharmacokinetics: • Plasma samples were drawn during supine phase (Days 1 and 2) at 0, 1, 2, 3, 4, 5, 7, 10, 15, 20, 30, 45 minutes after dosing and at 1, 1.5, 2, 4, 6, 8, 12 and 24 hours after dosing. Urine was collected for 24 hours for CVT-3146 excretion.
A three-compartment open model was fit to the data using observed Tmax (1-4 minutes) as the duration of a zero-order infusion. Reliable parameter estimates were obtained for dose of 1-30 μg/kg. Parameters are summarized in the following (Table 2): […]

[5] = test system: blood flow in coronary, mesenteric, hind limb and renal vascular beds; test: Example 8: vasodilator effects in different vascular beds (CBF, MBF, LBF, RBF) in awake dogs; type: in vivo; conditions: n=6, FIG. 18
Method: Example 8 employed a pharmaceutical composition consisting of an aqueous composition of 100 micrograms/mL CVT-3146 in 15% (w:v) propylene glycol and 100 mM phosphate buffer at pH 7 with 0.1% EDTA. The formulation was stored in type I glass vials at 5 mL per vial.
In this study the vasodilator effects of CVT-3146 were compared to those of ADO in different vascular beds in awake dogs. Dogs were chronically instrumented for measurements of the blood flow in coronary (CBF), mesenteric (MBF), hind limb (LBF), and renal (RBF) vascular beds, and hemodynamics.

CNC(=O)c1cnn(-c2nc(N)c3ncn([C@@H]4O[C@H](CO)[C@@H](O)[C@H]4O)c3n2)c1 [CVT-3146, (1-{9-[(4S,2R,3R,5R)-3,4-dihydroxy-5-(hydroxymethyl)oxolan-2-yl]-6-aminopurin-2-yl}pyrazol-4-yl)-N-methylcarboxamide]
dose-dependent effect on ischemia detection [1]: No dose-dependent effect
time of maximum decrease in diastolic BP after dosing ([2]; 400 μg IV bolus): about 1 minute
time of maximum decrease in systolic BP after dosing ([2]; 400 μg IV bolus): about 1 minute
time of maximum increase in heart rate after dosing ([2]; 400 μg IV bolus): about 1 minute
peak effects compared with adenosine ([2]; doses above about 100 μg): equivalent to 18 μg adenosine administered IC
effect on HR over dose ([3]; 0.31 μg/kg-50 μg/kg rapid i.v. bolus): dose-dependent increase in HR
decrease in BP caused by CVT-3146 ([3]; CVT-3146 alone (comparison with ZM241385), awake rats): 14±3%
change in BP caused by CVT-3146 ([3]; CVT-3146 alone (comparison with hexamethonium)): −11±2%
increase in HR caused by CVT-3146 ([3]; CVT-3146 alone, awake rats): 27±3%
Vd [4]: 75.5 L
increase in hind limb blood flow (LBF) compared to ADO [5]: smaller increase in LBF than ADO
